Read-outs that look alike come from different tables or passages of the source.
Experiments:
[1] = ORAC assay adapted for the linoleate microemulsion system, combination with α-tocopherol; conditions: in combination with α-tocopherol; 100% = additive, >100% = synergistic
Description: Using an ORAC assay adapted for the linoleate microemulsion system (Sim, W. L. S. et al., Journal of Agricultural and Food Chemistry 57: 3409-3414 (2009)), we determined the antioxidant activity of α-tocopherol (a form of vitamin E) combined with crude caffeine, ascorbic acid, and chlorogenic acid. Data were expressed as relative ORAC: a relative ORAC of 100% means that the antioxidant activity of the mixture equaled the sum of each component's antioxidant activity (additive effect), whereas a relative ORAC greater than 100% means that the antioxidant activity of the mixture was greater than the sum of each component's antioxidant activity (synergistic effect).
In a 15-mL test tube, methyl linoleate (1.2 g), Tween-20 (2.9 g), n-butanol (1.5 g), and potassium phosphate buffer (4.4 g) were vortexed until the resulting solution was clear. […] A control well containing 200 μL of microemulsion and 40 μL of phosphate buffer was used to normalize the fluorescence reading. The reaction kinetics were monitored at 37° C. for 2 h, with readings every 2 min, by a Synergy HT microplate fluorescent reader (Biotek Instruments Inc.). The microplate reader was fitted with an excitation filter at 485 nm, an emission filter of 590 nm, and an oxygen sensor biosystem, and the plate was shaken for 20 s at low intensity before each reading to ensure sufficient mixing. […]

[2] = target: T1, COX-2 enzyme (Homo sapiens, UniProt P35354); test: COX-2 inhibition (oxygen consumption); format: biochemical
T1 sequence (P35354 18-604): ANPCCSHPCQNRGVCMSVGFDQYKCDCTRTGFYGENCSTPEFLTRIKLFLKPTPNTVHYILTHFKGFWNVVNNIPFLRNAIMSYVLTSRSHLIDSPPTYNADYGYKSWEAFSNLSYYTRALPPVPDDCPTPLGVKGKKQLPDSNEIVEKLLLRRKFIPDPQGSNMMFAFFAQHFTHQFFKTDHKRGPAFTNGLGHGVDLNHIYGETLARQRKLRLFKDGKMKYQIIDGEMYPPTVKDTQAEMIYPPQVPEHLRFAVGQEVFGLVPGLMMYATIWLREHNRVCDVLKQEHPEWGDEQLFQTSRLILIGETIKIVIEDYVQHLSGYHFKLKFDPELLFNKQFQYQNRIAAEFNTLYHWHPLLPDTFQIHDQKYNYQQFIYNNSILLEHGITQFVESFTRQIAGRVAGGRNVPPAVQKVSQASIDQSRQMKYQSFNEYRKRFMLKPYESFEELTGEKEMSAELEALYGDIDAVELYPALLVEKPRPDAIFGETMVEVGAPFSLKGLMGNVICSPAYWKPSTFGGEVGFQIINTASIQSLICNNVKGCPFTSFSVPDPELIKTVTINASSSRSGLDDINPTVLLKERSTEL
Procedure: As discussed above, the ability to inhibit the COX-2 enzyme is understood as providing anti-inflammatory activities. […] IC50 indicates the effective dose needed to achieve about 50 percent inhibition of the COX-2 enzyme.
COX-2 inhibition. Oxygen consumption was measured in the reaction chamber of an Oxytherm (Hansatech Instrumental, Norfolk, England) at 37° C. The reaction mixture consisting of 0.5 mL Tris buffer (0.1 M, pH 8.0), 5 μL heme [100 μM in dimethyl sulfoxide (DMSO)], and 10 μL of COX-2 enzyme was incubated for 1 min. Five microliters of each sample (in DMSO or ethanol) was added and the mixture was incubated for an additional 1 min. The assay was initiated by adding 5 μL arachidonic acid, and the oxygen concentration was monitored. The initial oxygen consumption rate was obtained from the kinetic curve. COX-2 inhibition was expressed as the inhibitor concentration at which the initial oxygen consumption rate decreased by 50% (IC50).

[3] = tested on: human skeletal muscle cells; test: Glucose uptake (3H-2-deoxyglucose) in human skeletal muscle cells; format: cell-based; conditions: about 0.01 mg/mL, p<0.05
Procedure: (§1) The effect of the crude caffeine extract of Example 1 on glucose uptake in both human adipocytes (fat) and skeletal muscle cells (SMC) was tested (Zen Bio Research, Triangle Park, N.C.).
(§2) Data were analyzed by one-way ANOVA followed by Tukey's post hoc test for multiple comparisons. In FIG. 6, results are expressed as mean±SD. The asterisk * denotes P<0.05 compared with human skeletal muscle cells; the carrot top A denotes P<0.05 compared with untreated human adipocytes.
(§3) Glucose uptake. The in vitro effects of crude caffeine on glucose uptake were assessed with human adipocytes and skeletal muscle cells (Zen-Bio, Research Triangle Park, N.C.). Briefly, primary human subcutaneous adipocytes or primary human myoblasts were differentiated in 96-well microplates. […] All samples, including the positive and negative controls, were tested in triplicate. After a 2-h incubation at 37° C. and 5% CO2, the cells were washed with PBS and lysed. The cell lysate was mixed with scintillation fluid and radioactivity of each well was measured as counts per minute (CPM).

[4] = Oxygen radical absorbance capacity, hydrophilic fraction (ORAChydro); conditions: crude caffeine complex of Example 1 vs pure caffeine
Procedure: Oxygen radical absorbance capacity. To determine antioxidant values of the hydrophilic fraction (ORAChydro), 5 g crude caffeine was extracted with 20 mL acetone/water (50:50 v/v) on an orbital shaker at room temperature for 1 h. The mixtures were centrifuged at 1972×g in a Rotanta 460R centrifuge (GMI, Ramsey, Minn.). […] The excitation wavelength was set at 485 (±20) nm and the emission wavelength set at 530 (±25) nm. To determine antioxidant values of the lipophilic fraction (ORAClipo), 5 g crude caffeine was extracted twice with 10 mL hexane/dichloromethane (50:50 v/v).

[5] = tested on: human adipocytes; test: Glucose uptake (3H-2-deoxyglucose) in human adipocytes; format: cell-based; conditions: about 0.01 mg/mL, p<0.05
Procedure: as §1, §2, §3

SMILES: O=C1O[C@H]([C@@H](O)CO)C(O)=C1O [ascorbic acid]
- relative ORAC [1]: 100%

SMILES: O=C(/C=C/c1ccc(O)c(O)c1)O[C@@H]1C[C@](O)(C(=O)O)C[C@@H](O)[C@H]1O [chlorogenic acid]
- relative ORAC [1]: 168%

SMILES: Cn1c(=O)c2c(ncn2C)n(C)c1=O [pure caffeine, 1,3,7-trimethylxanthine]
- COX-2 inhibitory activity (in words) [2]: no such inhibitory activity
- COX-2 inhibitory activity (in words) ([2]; listed as Pure caffeine): did not inhibit COX-2 activity
- increase in glucose uptake as compared to a control [3]: no such effect
- ORAChydro [4]: 5 μmol TE/g
- increase in glucose uptake as compared to a control [5]: no such effect

— US20120269913A1, “CRUDE CAFFEINE COMPLEX, IMPROVED FOOD PRODUCTS USING THE CRUDE CAFFEINE COMPLEX, AND METHODS OF USE THEREOF” (priority 2009, published 2012)
